In PubChem BioAssay (NCI):
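Five compound concentrations were applied to cells in 96-well plates for 48 hours; endpoints were derived by simple linear interpolation of the resulting dose-response curve. Here, GI50 denotes the concentration required for 50% inhibition of growth. TGI denotes the concentration required for complete inhibition of growth.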

Assays:
Assay in all cases: NCI-60 cell line screen, 48 h
MDA-MB-435 = system: MDA-MB-435
RPMI-8226 leukemia = system: RPMI-8226 leukemia
UACC-257 melanoma = system: UACC-257 melanoma
SR leukemia = system: SR leukemia
LOX IMVI melanoma = system: LOX IMVI melanoma
OVCAR-5 ovarian = system: OVCAR-5 ovarian
TK-10 renal = system: TK-10 renal

SMILES	GI50 (MDA-MB-435) [µM]	TGI (MDA-MB-435) [µM]	GI50 (RPMI-8226 leukemia) [µM]	TGI (RPMI-8226 leukemia) [µM]	GI50 (UACC-257 melanoma) [µM]	TGI (UACC-257 melanoma) [µM]	GI50 (SR leukemia) [µM]	TGI (SR leukemia) [µM]	GI50 (LOX IMVI melanoma) [µM]	TGI (LOX IMVI melanoma) [µM]	GI50 (OVCAR-5 ovarian) [µM]	TGI (OVCAR-5 ovarian) [µM]	GI50 (TK-10 renal) [µM]	TGI (TK-10 renal) [µM]
NCCOCCOCCNc1nc(Cc2ccccc2)nc(NCCCN2CCCC2=O)n1	> 100	> 100	> 100	> 100	> 100	> 100	> 100	> 100	> 100	> 100	> 100	> 100		
CC(C)c1cc(-c2n[nH]c(=O)n2-c2ccc3c(ccn3C)c2)c(O)cc1O	< 0.0191	15.6	< 0.0218	31.3	< 0.0195	30.6	< 0.01	35	0.0238	0.0661	0.147	> 48.4	< 0.0271	37
CCc1nccc2c1nc(-c1nonc1N)n2CC	> 25	> 25	> 25	> 25	> 25	> 25			> 25	> 25	> 17.8	> 25	7.83	> 25
CCCCCCCCCCC(C(=O)O)C1(C(=O)O)CCC(=O)O1 (stereo not drawn)		> 100		> 100		> 100		> 100		> 100		> 100		> 100
CC1(C)CC(=O)c2c(C(F)(F)F)nn(-c3ccc(C(N)=O)c(NC4CCC(OC(=O)CN)CC4)c3)c2C1 (stereo not drawn)	0.0418	> 47.3	0.356	> 60.1	0.029	0.0972	0.0301	17.6	0.0616	0.33	3.7	> 100	0.0592	> 100
Cc1cc(N(CCCl)CCCl)ccc1C=Nc1ccc(-c2csc(Cc3ccccc3)n2)cc1	12.4	39.9	8.26	44	3.36	29.3	1.07	73.2	7.95	20.8	8.91	> 67.1	19.9	62.5
COc1cc(/C=C/c2cc(O)c3cc(C(C)=O)c(=O)oc3c2)cc2c1O[C@]1(C)CC[C@@H](O)C(C)(C)[C@H]1C2	> 20.1	> 45.7				> 30.5		> 100		> 42.2	> 36.5	> 86	> 42.7	> 77.7
Cn1cccc1-c1cc(-c2cccs2)nc(N)c1C#N	> 100	> 100	> 100	> 100	> 100	> 100	5.39	68.2	> 100	> 100	> 100	> 100	> 100	> 100
CC(CCC(=O)O)[C@H]1CCC2[C@@H]3CC[C@@H]4CC(O)CC[C@]4(C)C3CC[C@@]21C (stereo partly drawn)	37.5	> 100	23.6	57.1	27.7	> 100	23.4	85.4	29.5	> 100	> 100	> 100	42.2	> 100
COc1ccc2c(c1)/C(=C\c1c(C)nc3sccn13)C(=O)N2				> 26.4			0.0309	0.38	< 0.01	> 100	7.81	> 100		> 63.5
O=C(O)/C=C\C(=O)N1C/C(=C\c2ccccc2Cl)C(=O)/C(=C/c2ccccc2Cl)C1	3.34	13.6	1.35	10.3	6.44	20.4	0.632	13	1.56	3.71			4.47	12.3
CC[C@@H](C(=O)O)C1CC[C@H](C)C([C@@H](C)[C@H](O)[C@H](C)C(=O)[C@H](CC)C2O[C@]3(C=C[C@@H](O)[C@]4(CC[C@@](C)(C5CC[C@](O)(CC)[C@H](C)O5)O4)O3)[C@H](C)C[C@@H]2C)O1 (stereo partly drawn)	1.04	2.77	0.153	3.48	0.293	5.88	0.0411	14	0.641	13.6	2.48	50.8	0.987	39.4
COc1ccc(-c2nc3sc4c(c3c(=O)[nH]2)CCCCCC4)cc1	0.107	0.838	> 33.2	> 33.2	> 33.2	> 33.2	0.717	> 33.2	3.12	> 33.2	> 33.2	> 33.2	> 33.2	> 33.2
O=C1c2cccnc2C(=O)c2nc3cc(N4CCN(C5CC5)CC4)ccc3nc21	0.169	0.328	2.4	8.63	0.479	1.98	0.322	> 20.1	0.416	1.86	1.34	3.07	2.19	7.81
O=C(/C=C/c1ccccc1)c1cc(Br)ccc1O		32.6		34		27.9		12.3		27.5		46.3		31.6
Nc1nc2c(c3ncncc13)C(c1cccc(C(F)(F)F)c1)Cc1ncncc1-2 (stereo not drawn)			5.33	43.8	9.56	62.1			5.36	21.1	11.3	31.4	9.05	79.4
COc1cc(C2CC(c3ccc4c(c3)OCO4)=NN2C=O)cc(OC)c1OC (stereo not drawn)	0.26	1.13	5.17	> 64.6	> 20.3	> 100	0.52	> 100	1.27	> 100	12.2	> 100	> 29.9	> 100
